Laboratory results published in patent US12570602B2, “Selective serotonin receptor modulators and methods of making and using the same” (Park City Bio, LLC, priority 2024, dated 2026).

Assays:
5-HT2A receptor = molecular target: T1, 5-HT2A receptor (Homo sapiens, UniProt P28223); assay: Gq activation via Gq/γ1 dissociation BRET, 5-HT2A; assay type: cell-based; conditions: hallucinogenic or non-hallucinogenic plastogenic effect predicted from level of 5-HT2A agonist efficacy
T1 construct: expressed in transfected cells; host or cells: HEK293T
T1 sequence (P28223 whole entry): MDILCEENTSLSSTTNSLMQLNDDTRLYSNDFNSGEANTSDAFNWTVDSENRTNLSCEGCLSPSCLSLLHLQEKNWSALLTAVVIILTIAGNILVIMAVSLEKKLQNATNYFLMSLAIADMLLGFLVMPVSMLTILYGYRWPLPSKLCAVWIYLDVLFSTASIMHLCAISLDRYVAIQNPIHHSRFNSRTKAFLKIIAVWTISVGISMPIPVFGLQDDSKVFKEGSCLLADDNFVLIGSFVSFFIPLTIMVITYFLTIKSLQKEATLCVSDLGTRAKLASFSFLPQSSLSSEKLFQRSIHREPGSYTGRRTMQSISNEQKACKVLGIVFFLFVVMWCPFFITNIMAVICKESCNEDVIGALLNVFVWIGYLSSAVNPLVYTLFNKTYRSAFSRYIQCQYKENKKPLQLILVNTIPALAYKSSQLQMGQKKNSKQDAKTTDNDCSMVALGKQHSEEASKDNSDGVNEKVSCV
Description: (§1) To measure 5-HT2 receptor-mediated Gq activation via Gq/y1 dissociation as measured by Bioluminescence Resonance Energy Transfer (BRET) (McCorvy J D, Wacker D, Wang S, Agegnehu B, Liu J, Lansu K, Tribo A R, Olsen R H J, Che T, Jin J, Roth B L. Structural determinants of 5-HT2B receptor activation and biased agonism. Nat Struct Mol Biol. 2018; 25(9): 787-96), HEK293T cells were sub-cultured in Dulbecco's Modified Eagle Medium (DMEM) supplemented with 10% dialyzed fetal bovine serum (FBS) and were co-transfected in a 1:1:1:1 ratio with Rluc8-fused human Gaq (Gaq-Rluc8), a GFP2-fused to the C-terminus of human Gy1 (Gy1-GFP2), human GI31, and 5-HT2 receptor using TransiT-2020. After at least 18-24 hours, transfected cells were plated in poly-lysine coated 96-well white clear bottom cell culture plates in DMEM containing 1% dialyzed FBS at a density of 25,000-40,000 cells in 200 μL per well and incubated overnight. The following day, medium was decanted, and cells were washed with 60 μL of drug buffer (1×HBSS, 20 mM HEPES, pH 7.4), then 60 μL of drug buffer was added per well. Cells were pre-incubated at in a humidified atmosphere at 37° C. before receiving drug stimulation. […] Substrate addition occurred 15 minutes before reading and utilized 10 μL of the Rluc substrate coelenterazine 400a for Gq dissociation BRET^2 (Prolume/Nanolight, 5 μM final concentration). Plates were read for luminescence at 400 nm and fluorescent GFP2 emission at 510 nm at 1 second per well using a Mithras LB940 multimode microplate reader (e.g. one provided by Berthold). The BRET ratios of fluorescence/luminescence were calculated per well and were plotted as a function of drug concentration using Graphpad Prism 8 (Graphpad Software Inc., San Diego, CA). Data were normalized to % 5-HT stimulation and analyzed using nonlinear regression “log(agonist) vs. response” to yield Emax and EC50 parameter estimates. […]

5-HT2C receptor = molecular target: T2, 5-HT2C receptor (Homo sapiens, UniProt P28335); assay: Gq activation via Gq/γ1 dissociation BRET, 5-HT2C; assay type: cell-based; conditions: primary signaling for 5-HT2C via Gq-coupled mechanism compared to B-arrestin
T2 construct: expressed in transfected cells; host or cells: HEK293T
T2 sequence (P28335 33-458): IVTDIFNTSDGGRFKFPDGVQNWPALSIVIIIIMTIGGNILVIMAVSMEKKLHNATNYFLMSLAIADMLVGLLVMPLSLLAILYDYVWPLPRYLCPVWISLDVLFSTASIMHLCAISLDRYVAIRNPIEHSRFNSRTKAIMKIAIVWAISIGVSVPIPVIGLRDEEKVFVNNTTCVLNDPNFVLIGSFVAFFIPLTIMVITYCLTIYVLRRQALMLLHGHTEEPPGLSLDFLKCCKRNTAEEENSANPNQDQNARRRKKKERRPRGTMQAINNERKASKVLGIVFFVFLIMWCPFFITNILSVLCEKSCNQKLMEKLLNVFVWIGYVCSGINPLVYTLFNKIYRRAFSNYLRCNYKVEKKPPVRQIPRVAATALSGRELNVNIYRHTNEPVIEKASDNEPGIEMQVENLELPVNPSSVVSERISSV
Description: as §1

Row | Structure (SMILES) | Hall or N-Hall? (5-HT2A receptor) | 5-HT2C Gq signaling bias? (5-HT2C receptor)
1 | CNCC1CC1c1cc(F)ccc1SC (stereo not drawn) | N-Hall | Yes
2 | CSc1ccc(F)cc1C1CC1CN(C)C (stereo not drawn) | N-Hall | Yes
3 | CNC[C@H]1C[C@@H]1c1cc(F)ccc1OC | N-Hall | Yes
